In US20230145835A1, “Modulators of Alpha-4-beta-7 Integrin and MAdCAM” (48HD Biopharma Inc., priority 2021, published 2023):
Numbered stars: 1 amine (or outer) side, 2 acyl side, 3 side chain; on linkers, the order of the positions; unused ones are H or OH. Bridge positions count the residues as written; N and C are the ends. Square brackets hold non-standard residues; d marks the D form. Peptide text beside a SMILES is read from it. * marks the point of attachment. ξ: configuration not given here. X3 = O=C(/C=N/OCCCCCCOc1cc(C[*:2])cc(C[*:3])c1)[*:1]; X1 = O=C(C=NOCCCCCCOc1cc(C[*:2])cc(C[*:3])c1)[*:1]; X11 = CCCCCOc1cc(C[*:1])cc(C[*:2])c1; hIle(4ξ) = CCC(C)C[C@H](N)C(=O)O; tBuAla = CC(C)(C)C[C@H](N)C(=O)O; Met(O) = CS(=O)CC[C@H](N)C(=O)O; Nle = CCCC[C@H](N)C(=O)O; X10 = CO/N=C/C(=O)*

target: T1, rh-integrin α4β7/LPAM-1 (Homo sapiens, UniProt P13612+P26010); assay: α4β7-MadCAM Competition ELISA (Example 4); assay type: binding; conditions: Table 3 Representative compounds; inhibition of MAdCAM binding to coated α4β7; read-out: IC50
T1 sequence (P13612 34-977 limits assumed): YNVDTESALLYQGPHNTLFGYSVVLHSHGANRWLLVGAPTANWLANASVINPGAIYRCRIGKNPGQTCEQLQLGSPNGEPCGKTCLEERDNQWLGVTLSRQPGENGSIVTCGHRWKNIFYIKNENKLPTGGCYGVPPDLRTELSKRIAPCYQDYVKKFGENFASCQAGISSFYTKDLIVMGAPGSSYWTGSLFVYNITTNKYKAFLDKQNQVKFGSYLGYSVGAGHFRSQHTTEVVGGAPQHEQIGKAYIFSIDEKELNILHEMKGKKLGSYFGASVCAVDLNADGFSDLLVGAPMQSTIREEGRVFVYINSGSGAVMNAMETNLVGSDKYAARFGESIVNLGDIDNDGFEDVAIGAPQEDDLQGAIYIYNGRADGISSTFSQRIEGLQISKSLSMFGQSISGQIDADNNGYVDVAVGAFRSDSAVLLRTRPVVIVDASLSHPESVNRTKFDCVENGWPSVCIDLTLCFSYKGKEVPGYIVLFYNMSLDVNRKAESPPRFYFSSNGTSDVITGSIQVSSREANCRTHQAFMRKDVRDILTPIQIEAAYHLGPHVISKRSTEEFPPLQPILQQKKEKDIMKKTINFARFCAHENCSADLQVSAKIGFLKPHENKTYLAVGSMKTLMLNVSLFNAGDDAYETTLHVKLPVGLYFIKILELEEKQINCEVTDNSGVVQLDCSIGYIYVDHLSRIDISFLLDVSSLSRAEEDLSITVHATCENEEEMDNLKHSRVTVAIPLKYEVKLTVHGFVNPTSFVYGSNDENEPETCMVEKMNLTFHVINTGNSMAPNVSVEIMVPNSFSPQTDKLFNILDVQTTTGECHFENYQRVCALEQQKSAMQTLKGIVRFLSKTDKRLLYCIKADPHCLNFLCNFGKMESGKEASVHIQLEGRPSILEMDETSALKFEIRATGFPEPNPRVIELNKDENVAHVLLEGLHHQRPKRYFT
T1 sequence (P26010 20-723 limits assumed): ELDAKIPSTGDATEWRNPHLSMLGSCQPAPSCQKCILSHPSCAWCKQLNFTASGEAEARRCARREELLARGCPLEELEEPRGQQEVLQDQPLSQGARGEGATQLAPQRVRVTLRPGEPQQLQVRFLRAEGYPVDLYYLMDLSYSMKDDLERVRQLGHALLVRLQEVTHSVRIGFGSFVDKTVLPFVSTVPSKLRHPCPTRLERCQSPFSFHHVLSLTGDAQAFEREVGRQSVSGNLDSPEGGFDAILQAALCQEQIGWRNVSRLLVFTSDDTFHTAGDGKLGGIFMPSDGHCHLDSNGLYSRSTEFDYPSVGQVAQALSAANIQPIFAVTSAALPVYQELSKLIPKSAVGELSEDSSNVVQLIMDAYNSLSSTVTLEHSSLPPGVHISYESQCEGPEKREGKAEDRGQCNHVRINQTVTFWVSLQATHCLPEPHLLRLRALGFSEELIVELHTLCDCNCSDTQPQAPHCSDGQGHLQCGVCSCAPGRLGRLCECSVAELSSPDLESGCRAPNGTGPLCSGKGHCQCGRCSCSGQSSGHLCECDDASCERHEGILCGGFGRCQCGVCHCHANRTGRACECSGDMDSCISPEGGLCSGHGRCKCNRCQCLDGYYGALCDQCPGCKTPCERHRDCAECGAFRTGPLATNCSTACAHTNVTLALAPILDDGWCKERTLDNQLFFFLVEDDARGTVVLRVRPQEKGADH
Method: After washing with wash buffer, 200 μL assay buffer was added to each well and incubated for one hour at 28° C. After another wash with wash buffer, 100 μL of a MAdCAM and peptide mixture in assay buffer was added to each well and incubated for one hour at 28° C., followed by washing with wash buffer.

SMILES	IC50
CCC(C)C[C@@H]1NC(=O)[C@H](CC(=O)O)NC(=O)[C@H](CC(C)C)NC(=O)[C@H](CCCCN)NC(=O)[C@@H]2CSCc3cc(cc(c3)OCCCCCCO/N=C/C(=O)N[C@@H](Cc3c[nH]cn3)C(=O)N2)CSC[C@@H](C(N)=O)NC(=O)[C@H](CC(C)C)NC(=O)[C@H](Cc2c[nH]c3ccccc23)NC1=O (stereo partly shown) [compound 107, TSL6- SHCKLDIWVC] (HCKLD[hIle(4ξ)]WLC-NH2; linker N-2-9 via X3)	> 500 µM
CCCCCOc1cc2cc(c1)CSC[C@H](NC(=O)[C@H](Cc1ccccc1)NC(=O)/C=N/OC)C(=O)N[C@@H](CC(C)C)C(=O)NCC(=O)N[C@@H](Cc1ccc(O)cc1)C(=O)N[C@@H](CCC(=O)O)C(=O)N[C@@H](C)C(=O)N[C@@H]([C@@H](C)O)C(=O)N[C@H](C(N)=O)CSC2 [compound 97, TSL6- SFCLGYEASC] (X10-FCLGYEATC-NH2; linker 2-9 via X11)	127 µM
CC[C@H](C)[C@@H]1NC(=O)[C@H](CC(=O)O)NC(=O)[C@H](CC(C)C)NC(=O)[C@@H]2CSCc3cc(cc(c3)OCCCCCCO/N=C/C(=O)N[C@@H](CCCNC(=N)N)C(=O)N2)CSC[C@@H](C(N)=O)NC(=O)[C@H](CC(=O)O)NC(=O)[C@H](Cc2ccc(O)cc2)NC(=O)[C@H]([C@@H](C)O)NC1=O [compound 92, TSL6- SRCLDIMYDC] (RCLDITYDC-NH2; linker N-2-9 via X3)	100 µM
CC(C)C[C@@H]1NC(=O)[C@@H]2CCCN2C(=O)[C@@H]2CSCc3cc(cc(c3)OCCCCCCO/N=C/C(=O)N[C@@H](C)C(=O)N2)CSC[C@@H](C(N)=O)NC(=O)[C@H](CCC(=O)O)NC(=O)[C@H](Cc2ccc(O)cc2)NC(=O)[C@@H]2CCCN2C(=O)C([C@@H](C)O)NC(=O)[C@H](CC(=O)O)NC1=O (stereo in doubt) [compound 43, TSL6- SACPLDTPYEC]	1.45 µM
CSCC[C@@H]1NC(=O)/C=N/OCCCCCCOc2cc3cc(c2)CSC[C@H](NC1=O)C(=O)N1CCC[C@H]1C(=O)N[C@@H](CC(C)C)C(=O)N[C@@H](Cc1ccc(O)cc1)C(=O)N[C@@H](CCCCN)C(=O)N[C@@H](C(C)C)C(=O)N[C@@H](Cc1cnc[nH]1)C(=O)N[C@H](C(N)=O)CSC3 [compound 98, TSL6- SMCPLYKVHC] (MCPLYKVHC-NH2; linker N-2-9 via X3)	151 µM
CC(C)C[C@@H]1NC(=O)[C@@H]2CCCN2C(=O)[C@@H](NC(=O)[C@H](CCCCN)NC(=O)[C@@H](N)CO)CSSC[C@@H](C(N)=O)NC(=O)[C@H](CO)NC(=O)[C@@H]2CCCN2C(=O)[C@H](C(C)C)NC(=O)[C@H](CC(=O)O)NC1=O [compound 41] (H-SKCPLDVPSC-NH2; disulfide 3-10)	1.3 µM
CC(C)C[C@@H]1NC(=O)[C@@H]2CCCN2C(=O)[C@@H]2CSCc3cc(cc(c3)OCCCCCCO/N=C/C(=O)N[C@@H](CCCNC(=N)N)C(=O)N2)CSC[C@@H](C(N)=O)NC(=O)[C@H](CCC(=O)O)NC(=O)[C@H](Cc2ccc(O)cc2)NC(=O)[C@H](C)NC(=O)[C@H]([C@@H](C)O)NC(=O)[C@H](CC(=O)O)NC1=O [compound 38, TSL6- SKCPLDTAYEC] (RCPLDTAYEC-NH2; linker N-2-10 via X3)	1.04 µM
CC[C@H](C)[C@@H]1NC(=O)[C@H](C)NC(=O)[C@H](CC[S+](C)[O-])NC(=O)[C@@H]2CCCN2C(=O)[C@@H]2CSCc3cc(cc(c3)OCCCCCCO/N=C/C(=O)N[C@@H](CCC(N)=O)C(=O)N2)CSC[C@@H](C(N)=O)NC(=O)[C@H]([C@@H](C)O)NC(=O)[C@@H]2CCCN2C1=O (stereo partly shown) [compound 99, TSL6-SQCP{Ox-Met} AIPTC] (QCP[Met(O)]AIPTC-NH2; linker N-2-9 via X3)	152 µM
CCCC[C@@H]1NC(=O)[C@@H]2CCCN2C(=O)[C@@H]2CSCc3cc(cc(c3)OCCCCCCO/N=C/C(=O)N[C@@H](CCCNC(=N)N)C(=O)N2)CSC[C@@H](C(N)=O)NC(=O)[C@H](CCC(=O)O)NC(=O)[C@H](Cc2ccc(O)cc2)NC(=O)[C@@H]2CCCN2C(=O)[C@H](CC(C)(C)C)NC(=O)[C@H](CC(=O)O)NC1=O [compound 39, TSL6-SRCP{Nle}D {tBuAla}PYEC] (RCP[Nle]D[tBuAla]PYEC-NH2; linker N-2-10 via X3)	1.13 µM
CC(C)C[C@@H]1NC(=O)CNC(=O)[C@H](Cc2ccc(O)cc2)NC(=O)[C@H](CC(=O)O)NC(=O)[C@H](CO)NC(=O)[C@@H]2CSCc3cc(cc(c3)OCCCCCCO/N=C/C(=O)N[C@@H](C)C(=O)N2)CSC[C@@H](C(N)=O)NC(=O)[C@H](CCC(N)=O)NC1=O [compound 86, TSL6- SACSDTGLQC] (ACSDYGLQC-NH2; linker N-2-9 via X3)	70.7 µM
CCCC[C@@H]1NC(=O)[C@@H]2CCCN2C(=O)[C@@H]2CSCc3cc(cc(c3)OCCCCCCC(=O)NCC(=O)N[C@@H](CCCCN)C(=O)N2)CSC[C@@H](C(N)=O)NC(=O)[C@H](CCCCN)NC(=O)[C@H](C(C)C)NC(=O)[C@H](Cc2c[nH]c3ccccc23)NC(=O)[C@H]([C@@H](C)CC)NC(=O)[C@H](CC(=O)O)NC1=O (stereo in doubt) [compound 21, TSLC7- GKCP{Nle} DIWVKC]	0.45 µM

same assay, conditions: competition ELISA, 4 μg/mL α4β7 coated, MAdCAM and peptide mixture, 28° C.; read-out: IC50

SMILES	IC50
CCCC[C@@H]1NC(=O)[C@H](CO)NC(=O)[C@@H]2CSSC[C@@H](C(=O)N[C@@H](Cc3c[nH]c4ccccc34)C(=O)N[C@@H](CCC(N)=O)C(N)=O)NC(=O)[C@H](C(C)C)NC(=O)[C@H](CC(=O)O)NC(=O)[C@H](CC(C)C)NC(=O)[C@H](CO)NC(=O)[C@H](CCCNC(=N)N)NC(=O)[C@H](CSCC(=O)N[C@@H](CCCNC(=N)N)C(=O)N2)NC(=O)[C@H]([C@@H](C)CC)NC(=O)[C@H](CC(=O)O)NC1=O [SEQ ID NO: 94] ({CH2CO}-RCS[Nle]DICRSLDVCWQ-NH2; disulfide 2-13; thioether N-7)	19.7 µM
CC(C)C[C@@H]1NC(=O)[C@H](Cc2ccccc2)NC(=O)[C@@H]2CSCc3cc(cc(c3)OCCCCCCON=CC(=O)N[C@@H]([C@@H](C)O)C(=O)N2)CSC[C@@H](C(=O)O)NC(=O)[C@H](CC(N)=O)NC(=O)[C@H](CCCCN)NC(=O)[C@H](C(C)C)NC(=O)[C@H](CC(=O)O)NC1=O [SEQ ID NO: 10] (TCFLDVKNC-OH; linker N-2-9 via X1)	311 µM
CCCC[C@@H]1NC(=O)[C@H](CO)NC(=O)[C@H](CCCNC(=N)N)NC(=O)[C@@H]2CSCC(=O)N[C@@H](CCCNC(=N)N)C(=O)N[C@@H](CSSC[C@@H](C(=O)N[C@@H](Cc3c[nH]c4ccccc34)C(=O)N[C@@H](CCC(N)=O)C(N)=O)NC(=O)[C@H]([C@@H](C)CC)NC(=O)[C@H](CC(=O)O)NC1=O)C(=O)N[C@@H](CO)C(=O)N[C@@H](CCCC)C(=O)N[C@@H](CC(=O)O)C(=O)N[C@@H]([C@@H](C)CC)C(=O)N2 [SEQ ID NO: 76] ({CH2CO}-RCS[Nle]DICRS[Nle]DICWQ-NH2; disulfide 2-13; thioether N-7)	263 µM
C[C@@H]1NC(=O)C=NOCCCCCCOc2cc3cc(c2)CSC[C@H](NC1=O)C(=O)N[C@@H](Cc1ccc(O)cc1)C(=O)N1CCC[C@H]1C(=O)N[C@@H](CC(=O)O)C(=O)N[C@@H]([C@@H](C)O)C(=O)N[C@@H](Cc1ccc(O)cc1)C(=O)N[C@@H](Cc1c[nH]cn1)C(=O)N[C@H](C(=O)O)CSC3 [SEQ ID NO: 39] (ACYPDTYHC-OH; linker N-2-9 via X1)	111 µM
CC(C)C[C@@H]1NC(=O)[C@@H]2CCCN2C(=O)[C@@H]2CSCc3cc(cc(c3)OCCCCCCON=CC(=O)N[C@@H](CCCCN)C(=O)N2)CSC[C@@H](C(=O)O)NC(=O)[C@H](CCC(=O)O)NC(=O)[C@H](Cc2ccc(O)cc2)NC(=O)[C@@H]2CCCN2C(=O)[C@H]([C@@H](C)O)NC(=O)[C@H](C)NC1=O [SEQ ID NO: 72] (KCPLATPYEC-OH; linker N-2-10 via X1)	> 500 µM
